Measured values from patent US11673965B2, “Method of treating metastatic triple negative breast cancer with radiotherapy combined with phosphatidyl inositol-3 kinase delta/gamma inhibitors and anti-PD-1 antibodies” (Seoul National University R&DB Foundation, priority 2019, dated 2023).

Test system: 4T1-luc triple negative breast cancer cells
Test: Size change of tumor in triple negative breast cancer allograft mouse model
Assay type: in vivo, mouse (BALB/c)
Details: 31st day; 4T1-luc allograft; duvelisib 4 mg/kg and/or PD-1 blockade 10 mg/kg by injection 6 times; RT 8 Gy×3
Description: A triple negative breast cancer cell line (4T1-luc) was cultured in DMEM (Dulbecco's Modified Eagle's Medium, CORNING™) medium containing 10% (v/v) fetal bovine serum (FBS) and 1% (w/v) Penicillin-Streptomycin, using a cell culture flask, in a thermostat cell culture device under the condition of 37° C., 5% CO2.
6×10^5 4T1-luc triple negative breast cancer cells prepared in Example 1-1 were injected to the right hindlimb of a BALB/c female age standard (8 weeks) mice. At the 10th day after injecting each of the cancer cells, the mice with the tumor volume up to 40 mm^3 were selected, and were used for later experiments.
The triple negative breast cancer (TNBC) mouse model prepared by the method of Example 1-2 was assigned to 7 groups in total from the 10th day after cancer cell transplantation, and each treatment method was performed, and it was grouped into 7 groups so that the tumor mean volume of 7 mice was 40 mm^3 per group, and were used for later experiments.
Each treatment was progressed for 31 days after tumor transplantation. […]
On the day of each treatment, the size of tumor, the length and width were measured using Vernier caliper, and then the volume (mm^3) of tumor was calculated by the method of the following equation 1. […]

**Q.** Which Mean tumor volume does the source give for `C[C@H](Nc1ncnc2nc[nH]c12)c1cc2cccc(Cl)c2c(=O)n1-c1ccccc1` [PI3K γ δ inhibitor, duvelisib] here?
**A.** 786.59 mm^3
